This is an account of results in EP1685248B1, “OXIDOREDUCTASE FROM METSCHNIKOWIA ZOBELLII” (IEP GmbH, priority 2003, dated 2005).

For one assay, the system named is Oxidoreduktase aus Metschnikowia zobellii. Put plainly: Substrate spectrum (relative enzyme activity, standard assay of Example 5.1). In kind it is biochemical.
Details: not given
In the case of `O=C(CCl)CCCl` [1,4-Dichlor-butan-2-on], the “Relative Aktivität %” value is reported as 27%. Same read-out and setting: the same measure for `CC(=O)Cc1ccccc1` [1-Phenyl-2-propanon]: 15%. Same read-out and setting: the same measure for `O=C(CCl)c1cccc(Cl)c1` [2-chlor-1-(3-chlor-pheny)-ethan-1-on]: 5%; for `CCOC(=O)CC(=O)CCl` [4-Chloracetessigsäureethylester]: 100%; for `CCC(C)=O` [Butan-2-on]: 0%.

With `O=C1CCCCC1` [Cyclohexanon], the “Relative Aktivität %” value amounted to 3%.

Staying with this assay, now noted: activity with 2-Oxo-4-phenyl-buttersäureethylester set to 100%; NADPH; 25 °C.
As for `CC1CCCCC1=O` (stereo not shown) [2-Methylcyclohexanon], the “Relative Aktivität %” value stood at 8%. Turning to `CCOC(=O)C1CCCCC1=O` (stereo not shown) [2-Oxo-cyclohexan-carbonsäure-ethylester], the “Relative Aktivität %” value was found to be 20%. On the same count and under the same terms, the result for `CCOC(=O)C1CCCC1=O` (stereo not shown) [2-Oxo-cyclopentan carbonsäure-ethylester] reads 8%; that for `CC1CCCC(=O)C1` (stereo not shown) [3-Methylcyclohexanon], 8%; that for `COC(=O)CCCCC(=O)CC(=O)OC` [3-Oxo-1,8-octandisäure-dimethylester], 35%. The same measure, in the same setting: the same measure for `CCOC(=O)CCCCC(=O)CCCl` [8-Chlor-6-oxo-octansäure-ethylester]: 50%; for `CCOC(=O)C(=O)c1ccccc1Cl` [(2-chlorphenyl)-oxo-essigsäure ethylester]: 50%; for `CC(=O)c1ccccc1` [Acetophenon]: 0%.

As to `CCCCCCCC(=O)c1ccccc1` [Caprylophenon], the “Relative Aktivität %” value was 0%. On the same count and under the same terms, the same measure for `CCOC(=O)C(=O)CCc1ccccc1` [Ethyl-2-oxo-4-phenyl-buttersäure]: 100%. Regarding `CCCC(=O)C(=O)OCC` [Ethyl-2-oxovaleriansäure], the “Relative Aktivität %” value was 100%.

As for `CCOC(=O)C(=O)c1ccccc1` [Ethylphenylglyoxylat], the “Relative Aktivität %” value came out at 50%.

A further assay relates to rekombinante Oxidoreduktase aus Metschnikowia zobellii.
Assay: not given
In kind it is biochemical.
Details: not given
As for `CCOC(=O)CCCCC(=O)CCCl` [8-Chlor-6-oxo-octansäure-ethylester], the “des eingesetzten Substrats reduziert” value was 55%. The same measure, in the same setting: the result for `CCOC(=O)C(=O)CCc1ccccc1` [Ethyl-2-oxo-4-phenyl-buttersäure] reads 92%; that for `CCOC(=O)C(=O)c1ccccc1` [Ethylphenylglyoxylat], 50%.

The assay is the same for the next values; noted with them: Nach 48 h; 25 °C; two-phase system.
Regarding `O=C(CCl)c1ccccc1` [2-Chlor-1-phenyl-ethan-1-on], the “des eingesetzten Substrats reduziert” value was determined as 75%.
